{"source": "patent US20250213606A1", "about": "“MEDICINAL AGENT (EMBODIMENTS) AND DEVICE FOR USING SAME” (priority 2022, published 2025)", "key": {"[1]": {"tested_on": "laboratory animals and volunteer testers", "test": "Effective concentration ranges of the components of the mixture", "assay_type": "in vivo"}, "[2]": {"conditions": "governs risk of condensation in cold conditions; cited from earlier work"}}, "data": [{"smiles": "[Ar]", "note": "[argon]", "values": [{"measurement": "range of efficiency with the greatest effect, concentration in a mixture with oxygen", "setting": "[1]; laboratory animals, volunteer testers and foreign sources", "value": "30-70 % by volume"}]}, {"smiles": "[He]", "note": "[helium]", "values": [{"measurement": "effective content providing antihypothermic and antihypoxic effects", "setting": "[1]; in a mixture with oxygen from 21, argon at least 25 % by volume, xenon and krypton, mixture temperature 30 to 70° C.", "value": "at least 40 % by volume"}]}, {"smiles": "[Kr]", "note": "[krypton]", "values": [{"measurement": "critical temperature", "setting": "[2]", "value": 209.35, "unit": "K"}]}]}
